Measurements: patent publication US20260262643A1, “HERBICIDAL BENZOXAZINES” (FMC CORPORATION, priority 2022, published 2026)

What was measured:
kochia [1] = test: Test C postemergence; assay type: in vivo, Bassia scoparia; conditions: Postemergence, 1000 g ai/ha
How it was run: (§1)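 Visual injury ratings on a 0–100 scale (100 = complete control) were made against untreated controls 10 days after treatment in the greenhouse. Compounds, formulated with surfactant in non-phytotoxic solvent, were sprayed on soil preemergence or onto one- to two-leaf plants 2–10 cm tall postemergence.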

corn = test: Test C postemergence; assay type: in vivo, Zea mays; conditions: Postemergence, 1000 g ai/ha
How it was run: as §1

ragweed [2] = test: Test C postemergence; assay type: in vivo, Ambrosia artemisiifolia; conditions: Postemergence, 1000 g ai/ha
How it was run: as §1

galium = test: Test C postemergence; assay type: in vivo, Galium aparine; conditions: Postemergence, 1000 g ai/ha
How it was run: as §1

wheat = test: Test C postemergence; assay type: in vivo, Triticum aestivum; conditions: Postemergence, 1000 g ai/ha
How it was run: as §1

kochia [3] = test: Test C preemergence; assay type: in vivo, Bassia scoparia; conditions: Preemergence, 1000 g ai/ha; visual rating after 10 days, 0 to 100 scale (0 no effect, 100 complete control)
How it was run: as §1

foxtail, giant [4] = test: Test C postemergence; assay type: in vivo, Setaria faberi; conditions: Postemergence, 1000 g ai/ha
How it was run: as §1

blackgrass = test: Test C postemergence; assay type: in vivo, Alopecurus myosuroides; conditions: Postemergence, 1000 g ai/ha
How it was run: as §1

ryegrass, Italian [5] = test: Test C preemergence; assay type: in vivo, Lolium multiflorum; conditions: Preemergence, 1000 g ai/ha; visual rating after 10 days, 0 to 100 scale (0 no effect, 100 complete control)
How it was run: as §1

foxtail, giant [6] = test: Test C preemergence; assay type: in vivo, Setaria faberi; conditions: Preemergence, 1000 g ai/ha; visual rating after 10 days, 0 to 100 scale (0 no effect, 100 complete control)
How it was run: as §1

Pigweed, Redroot [7] = test: Test C preemergence; assay type: in vivo, Amaranthus retroflexus; conditions: 1000 g ai/ha, visual rating after 10 days, 0 to 100 scale (0 no effect, 100 complete control)
Text: (§2) Seeds of plant species selected from barnyardgrass (Echinochloa crusgalli), blackgrass (Alopecurus myosuroides), corn (Zea mays), foxtail, giant (giant foxtail, Setaria faberi), green foxtail (Setaria viridis), goosegrass (Eleusine indica), kochia (Bassia scoparia), oat, wild (wild oat, Avena fatua), pigweed, palmer (palmer amaranth, palmer pigweed, Amaranthus palmeri), Pigweed, Redroot (redroot pigweed, Amaranthus retroflexus), ragweed (common ragweed, Ambrosia artemisiifolia), ryegrass, Italian ([…] ryegrass, Lolium multiflorum), soybean (Glycine max), and wheat (Triticum aestivum) were planted into a blend of loam soil and sand and treated preemergence with a directed soil spray using test chemicals formulated in a non-phytotoxic solvent mixture which included a surfactant. At the same time, plants selected from these crops and weed species and also galium (catchweed bedstraw, Galium aparine) and horseweed (Erigeron canadensis) were planted in pots containing the same blend of loam soil and sand and treated with postemergence applications of test chemicals formulated in the same manner. Plants ranged in height from 2 to 10 cm and were in the one- to two-leaf stage for the postemergence treatment. Treated plants and untreated controls were maintained in a greenhouse for 10 days, after which time all treated plants were compared to untreated controls and visually evaluated for injury. Plant response ratings, summarized in Table C, are based on a 0 to 100 scale where 0 is no effect and 100 is complete control. A dash (-) response means no test result.

Pigweed, Redroot [8] = test: Test C postemergence; assay type: in vivo, Amaranthus retroflexus; conditions: 1000 g ai/ha
Text: as §2

ryegrass, Italian [9] = test: Test C postemergence; assay type: in vivo, Lolium multiflorum; conditions: Postemergence, 1000 g ai/ha
How it was run: as §1

barnyardgrass [10] = test: Test C postemergence; assay type: in vivo, Echinochloa crusgalli; conditions: Postemergence, 1000 g ai/ha
How it was run: as §1

ragweed [11] = test: Test C preemergence; assay type: in vivo, Ambrosia artemisiifolia; conditions: Preemergence, 1000 g ai/ha; visual rating after 10 days, 0 to 100 scale (0 no effect, 100 complete control)
How it was run: as §1

barnyardgrass [12] = test: Test C preemergence; assay type: in vivo, Echinochloa crusgalli; conditions: Preemergence, 1000 g ai/ha; visual rating after 10 days, 0 to 100 scale (0 no effect, 100 complete control)
How it was run: as §1

[13] = 0 to 100 scale, 0 no effect, 100 complete control
[14] = 10 days, visual 0 to 100 scale (0 no effect, 100 complete control)

SMILES | Plant response rating, Kochia (kochia [1]; [13]) | Plant response rating, Corn (corn; [13]) | Plant response rating, Ragweed (ragweed [2]; [13]) | Plant response rating, Galium (galium; [13]) | Plant response rating, Wheat (wheat; [13]) | Plant response rating, Kochia (kochia [3]) | Plant response rating, Foxtail, Giant (foxtail, giant [4]; [13]) | Plant response rating, Blackgrass (blackgrass; [13]) | Plant response rating, Ryegrass, Italian (ryegrass, Italian [5]) | Plant response rating, Foxtail, Giant (foxtail, giant [6]) | Plant response rating, Pigweed, Redroot (Pigweed, Redroot [7]) | Plant response rating, Pigweed, Redroot (Pigweed, Redroot [8]; [13]) | Plant response rating, Ryegrass, Italian (ryegrass, Italian [9]; [13]) | Plant response rating, Barnyardgrass (barnyardgrass [10]; [13]) | Plant response rating, Ragweed (ragweed [11]) | Plant response rating, Barnyardgrass (barnyardgrass [12]) | Plant response rating, Kochia (kochia [1]; [14]) | Plant response rating, Corn (corn; [14]) | Plant response rating, Ragweed (ragweed [2]; [14]) | Plant response rating, Galium (galium; [14]) | other results
C[C@H]1CN(C(=O)c2cccc(-c3cccnc3)c2)c2cccc(Cl)c2O1 [Compound 200] | 0 | 20 | 0 | 30 | 0 | 0 | 0 | 0 | 0 | 0 | 0 | 20 | 0 | 10 | 0 | 0 | – | – | – | – | –
CC1(C)CN(C(=O)c2ccnc(-n3cncn3)c2)c2ccccc2O1 [Compound 202] | 0 | – | 0 | 0 | 30 | 0 | 0 | – | 0 | 0 | 0 | 0 | 0 | 0 | 0 | 0 | – | – | – | – | Corn plant response rating (crop injury, 0 = no effect, 100 = complete kill) at 1000 g/ha (corn; Zea mays, post-emergence, 240 h, 0 to 100 scale, 0 no effect, 100 complete control): 0%; pest or weed control at 1000 g/ha (blackgrass; Alopecurus myosuroides, post-emergence, 240 h, 0 to 100 scale, 0 no effect, 100 complete control, read-out: Plant response rating, Blackgrass): 0%
CC1CN(C(=O)c2ccnc(-n3ccnc3)c2)c2cccc(Cl)c2O1 (stereo not drawn) [Compound 197] | 10 | 0 | 0 | 30 | 0 | 0 | 0 | 0 | 0 | 30 | 30 | 50 | 0 | 0 | 0 | 0 | – | – | – | – | –
C[C@H]1CN(C(=O)c2cccc(-c3ccncn3)c2)c2cccc(Cl)c2O1 [Compound 287] | – | – | – | – | – | 30 | – | – | 20 | 0 | 0 | – | – | – | 0 | 60 | 10 | 0 | 0 | 20 | Plant response rating, Wheat (wheat; [14]): 0; Plant response rating, Foxtail, Giant (foxtail, giant [4]; [14]): 10; Plant response rating, Blackgrass (blackgrass; [14]): 0; Plant response rating, Pigweed, Redroot (Pigweed, Redroot [8]; [14]): 20; Plant response rating, Ryegrass, Italian (ryegrass, Italian [9]; [14]): 0; Plant response rating, Barnyardgrass (barnyardgrass [10]; [14]): 20
C[C@H]1CN(C(=O)c2cccc(-n3ccnn3)c2)c2cccc(Cl)c2O1 [Compound 199] | 10 | 10 | 0 | 20 | 0 | 0 | 20 | 20 | 30 | 50 | 20 | 40 | 40 | 30 | 0 | 0 | – | – | – | – | –
CCC1CN(C(=O)c2ccnc(-c3cccnc3)c2)c2cccc(Cl)c2O1 (racemic) [Compound 286] | – | – | – | – | – | 0 | – | – | 0 | 0 | 0 | – | – | – | 0 | 0 | 0 | 0 | 0 | 0 | Plant response rating, Wheat (wheat; [14]): 0; Plant response rating, Foxtail, Giant (foxtail, giant [4]; [14]): 0; Plant response rating, Blackgrass (blackgrass; [14]): 0; Plant response rating, Pigweed, Redroot (Pigweed, Redroot [8]; [14]): 0; Plant response rating, Ryegrass, Italian (ryegrass, Italian [9]; [14]): 0; Plant response rating, Barnyardgrass (barnyardgrass [10]; [14]): 0
